In US10111885B2, “Compositions and therapeutic methods for the treatment of complement-associated diseases” (Resverlogix Corp., priority 2015, dated 2018):
Read-outs that look alike come from different tables or passages of the source. Values belong to the molecule of their own block, whether it stands above or below them.

Assays:
[1] = system: C3 mRNA; experiment: Complement gene mRNA expression, TaqMan real-time PCR, Huh-7 cells; assay type: cell-based, human; conditions: Homo sapiens
Excerpt: (§1) In this example, mRNA levels from cultured cells were quantitated. The assay can be used to determine the effect of compound(s) on regulating mRNA levels, including those compounds in the present invention. Complement genes are expressed at high endogenous levels, but their expression can also be stimulated with various cytokines in inflammatory conditions. Experiments in this example target both basal and inflammatory complement gene expression. Compound mediated changes in gene expression and resulting mRNA levels are presented in Tables 2, 3 and 4 as well as FIGS. 1, 2, 3 and 4 below.
(§2) Huh-7 and HepG2 cells are liver-derived cell lines and are models for what can occur in the liver. Huh-7 cells (JCRB Cell Bank) were introduced to 96-well plates (^˜2.5×10^5 per well) in 100 μL DMEM containing 10% (v/v) FBS, 100 U/mL penicillin, 100 ug/mL streptomycin and 5 ug/mL plasmocin (all reagents from Gibco, except for the former, which was obtained from Invivogen). After 24 h, Huh-7 cells were treated with compounds in the same media formulation used for plating, and supplemented with 0.1% DMSO for the amount of time indicated in tables 2, 3, and 4. For select experiments, 24 h post-plating, cells were treated with cytokines and the compound of interest simultaneously, for a total treatment time of 48 h. Alternatively, 24 h after plating, cells were pre-treated with cytokines for 24 h before adding the compound of interest for 48 h. HepG2 cells (ATCC) were cultured in 96-well plates (^˜2.5×10^5 per well) in MEM containing 10% FBS, 1× non-essential amino acids, 1 mM sodium pyruvate, 2 mM L-glutamine, 100 U/mL penicillin, 100 ug/mL streptomycin and 5 ug/mL plasmocin. Serum amount was reduced to 0.5% for treatments with compound or cytokines. Timing of treatment of HepG2 cells with compounds and cytokines was as described for Huh-7 cells. Primary human hepatocytes (CellzDirect/Life Technologies) were plated in collagen coated 96-well plates at 70 000 cells/well, then overlaid with Matrigel™ as recommended by the supplier. Cells were treated with compounds of interest and/or cytokines for the indicated time points in the recommended media supplemented with 0.1% DMSO and 10% FBS (v/v). Cells were harvested by mRNA Catcher PLUS Kit (Life Technologies) followed by real-time PCR using the RNA UltraSense One-Step qRT-PCR System. The level of the mRNA of interest was measured by TaqMan real-time PCR relative to the endogenous control cyclophilin A in the same sample. Data were acquired using the ViiA-7 Real Time PCR System (Applied Biosystems).
(§3) Downregulation of expression of components of the complement cascade will result in reduced activity of the pathway and thus will constitute a positive result. Tables 2 and 3 list the concentration of compounds at which the level of the indicated mRNA is reduced by 50%, as well as the duration of treatment with compound. Table 4 lists the maximum reduction in the indicated mRNA measured in primary human hepatocytes treated with compounds for up to 72 hours. FIGS. 1, 2, 3 and 4 show effects of compounds on cytokine-induced (i.e. inflammatory) expression of complement genes in Huh-7 cells and HepG2 cells.

[2] = system: C4a/C4b mRNA; experiment: as above; assay type: cell-based, human; conditions: Homo sapiens
Excerpt: as §1, §2, §3

[3] = system: C5 mRNA; experiment: as above; assay type: cell-based, human; conditions: Homo sapiens; Huh-7, 48 h treatment; read-out: C5 (48 h) mRNA, half maximal inhibitory concentration (IC50)
Excerpt: as §1, §2, §3

[4] = system: erythrocyte lysis; conditions: erythrocyte lysis animal model; cited from earlier work
[5] = system: ex vivo perfused pig xenografts; conditions: porcine-to-human kidney perfusion animal model; cited from earlier work
[6] = hereditary angioedema; cited from earlier work
[7] = Huh-7, 48 h treatment (Table 3), read-out: mRNA expression in Huh-7 cells: IC50 (uM), C3
[8] = Huh-7, 48 h treatment (Table 3), read-out: mRNA expression in Huh-7 cells: IC50 (uM), C4
[9] = Huh-7, 48 h treatment, read-out: C3 (48 h) mRNA, half maximal inhibitory concentration (IC50)
[10] = Huh-7, 48 h treatment, read-out: C4a/C4b (48 h) mRNA, half maximal inhibitory concentration (IC50)

IC50 [3]: > 10 µM | IC50 [1, 9]: 4.7 µM | IC50 [2, 10]: 4.5 µM
Molecule: COc1cc(OC)c2c(=O)[nH]c(-c3cc(C)c(OCCN4CCCC4)c(C)c3)nc2c1 [RVX000297]

IC50 [1, 7]: 11.6 µM | IC50 [2, 8]: 15.6 µM
Molecule: COc1cc(OC)c2c(=O)[nH]c(-c3cc(C)c(OCC(O)CO)c(C)c3)nc2c1 (stereo not drawn) [RVX000344]

IC50 [1, 7]: 12.6 µM | IC50 [2, 8]: 9.3 µM
Molecule: COc1cc(OCCN2CCCC2)cc(-c2nc3cc(OC)cc(OC)c3c(=O)[nH]2)c1 [RVX000641]

IC50 [1, 7]: 11.1 µM | IC50 [2, 8]: > 50 µM
Molecule: COc1cc(OC)c2c(=O)[nH]c(-c3cc(C)c(OCCN4CCC(F)(F)C4)c(C)c3)nc2c1 [RVX000843]

IC50 [1, 7]: 11.3 µM | IC50 [2, 8]: 22 µM
Molecule: COc1cc(OC)c2c(=O)[nH]c(-c3cc(C)c(OCCNC(C)=O)c(C)c3)nc2c1 [RVX002101]

IC50 [1, 7]: 13.9 µM | IC50 [2, 8]: 13.8 µM
Molecule: COc1cc(OC)c2c(=O)[nH]c(-c3cc(C)c(OCCNC(=O)C(C)C)c(C)c3)nc2c1 [RVX002103]

IC50 [1, 7]: 15.4 µM | IC50 [2, 8]: 17.8 µM
Molecule: COc1cc(OC)c2c(=O)[nH]c(-c3ccc(N4CCNCC4)cc3)nc2c1 [RVX002141]

Further lines, the molecule ahead of its results:

Molecule: COc1cc(OC)c2c(=O)[nH]c(-c3cc(C)c(O)c(C)c3)nc2c1 [RVX000206]
IC50 [1, 7]: 3.6 µM | IC50 [2, 8]: 9.3 µM

Molecule: COc1cc(OC)c2c(=O)[nH]c(-c3ccc(N4CCN(C)CC4)cc3)nc2c1 [RVX000255, 5,7-dimethoxy-2-(4-(4-methylpiperazin-1-yl)phenyl)quinazolin-4(3H)-one]
IC50 [1, 7]: 20.4 µM | IC50 [2, 8]: 17.4 µM

Molecule: COc1cc(OC)c2c(=O)[nH]c(-c3cc(C)c(OCCN4CCCC4)c(C)c3)nc2n1 [RVX000662]
IC50 [1, 7]: 29.2 µM | IC50 [2, 8]: 21.1 µM

Molecule: COc1cc(OC)c2c(=O)[nH]c(-c3ccc4[nH]c(CN(C)C)cc4c3)nc2c1 [RVX000668]
IC50 [1, 7]: 9.5 µM | IC50 [2, 8]: 15.6 µM

Molecule: COc1cc(OC)c2c(=O)[nH]c(-c3cc(C)c(OCCNS(C)(=O)=O)c(C)c3)nc2c1 [RVX002093, N-(2-(4-(5,7-dimethoxy-4-oxo-3,4-dihydroquinazolin-2-yl)-2,6-dimethylphenoxy)ethyl)methanesulfonamide]
IC50 [1, 7]: 18.5 µM | IC50 [2, 8]: 17.2 µM

Molecule: COc1cc(OC)c2c(=O)[nH]c(-c3ccc(N4CCN(C(C)C)CC4)cc3)nc2c1 [RVX002109]
IC50 [3]: > 50 µM | IC50 [1, 9]: 34.8 µM | IC50 [2, 10]: 62.2 µM

Molecule: COC(=O)NCCOc1c(C)cc(-c2nc3cc(OC)cc(OC)c3c(=O)[nH]2)cc1C [RVX002113]
IC50 [1, 7]: 5.8 µM | IC50 [2, 8]: 7.8 µM

Molecule: COc1cc(OC)c2c(=O)[nH]c(-c3cc(C)c(OCCNC(C)C)c(C)c3)nc2c1 [RVX002135]
IC50 [3]: 37.9 µM | IC50 [1, 9]: 2.2 µM | IC50 [2, 10]: 4.3 µM

Molecule: CC[C@H](C)[C@H](N)C(=O)N[C@H]1CSSC[C@@H](C(=O)N[C@H](C(N)=O)[C@@H](C)O)NC(=O)[C@H](CCCN=C(N)N)NC(=O)[C@H](Cc2cnc[nH]2)NC(=O)[C@H](Cc2cnc[nH]2)NC(=O)CNC(=O)[C@H](Cc2c[nH]c3ccccc23)NC(=O)[C@H](CC(=O)O)NC(=O)[C@H](CCC(N)=O)NC(=O)[C@H](C(C)C)NC(=O)[C@H](C(C)C)NC1=O [compstatin]
reduction of hemolysis [4]: 50% | graft survival [5]: prolonged graft survival

B1: Recombinant human C1INH: recombinant human C1 esterase inhibitor (protein, UniProt P05155 23-500, looked up)
Plasma protease C1 inhibitor: NPNATSSSSQDPESLQDRGEGKVATTVISKMLFVEPILEVSSLPTTNSTTNSATKITANTTDEPTTQPTTEPTTQPTIQPTQPTTQLPTDSPTQPTTGSFCPGPVTLCSDLESHSTEAVLGDALVDFSLKLYHAFSAMKKVETNMAFSPFSIASLLTQVLLGAGENTKTNLESILSYPKDFTCVHQALKGFTTKGVTSVSQIFHSPDLAIRDTFVNASRTLYSSSPRVLSNNSDANLELINTWVAKNTNNKISRLLDSLPSDTRLVLLNAIYLSAKWKTTFDPKKTRMEPFHFKNSVIKVPMMNSKKYPVAHFIDQTLKAKVGQLQLSHNLSLVILVPQNLKHRLEDMEQALSPSVFKAIMEKLEMSKFQPTLLTLPRIKVTTSQDMLSIMEKLEFFDFSYDLNLCGLTEDPDLQVSAMQHQTVLELTETGVEAAAASAISVARTLLVFEVQQPFLFVLWDQQHKFPVFMGRVYDPRA
symptoms of repeat HAE attacks [6]: effective in improving symptoms
